Literature values in US20170303537A1, “COMPOSITIONS OF A QUATERNARY AMMONIUM COMPOUND WITH A MONOCARBOXYLIC FATTY ACID” (OMS INVESTMENTS, INC., priority 2016, published 2017).

Compound: CCCCCCCCC(=O)O [pelargonic acid]
- pKa: about 5
